Experimental data as given in US20260015632A1, “CULTURE MEDIUM COMBINATION FOR INDUCING DIFFERENTIATION OF PLURIPOTENT STEM CELLS INTO CD34+ HEMATOPOIETIC STEM/PROGENITOR CELLS” (SHENZHEN CELL INSPIRE BIOTECHNOLOGY CO., LTD., priority 2023, published 2026).

Key:
Assay type in all cases: cell-based, human
[1] = tested on: iPSCs; test: Optimization of iNK purity and yield, flow cytometry CD56/CD45 and fold expansion; set-up: yield of HSPCs / yield of iNK cells differentiated from these HSPCs: dose or concentration left out as unconfirmed; settings: for proliferation rate of iNK cells: concentrations and media as in Example 5; for proportion of CD56+ or CD45+ cells / yield of iNK cells: added to fourth differentiation medium: NAD+, 0.1 ng/mL HLA-C, 1000 IU IL-2 or 15 μM SB203580
Protocol: To further improve the differentiation efficiency and cytotoxicity of the obtained NK cells, UM171 was added to the second differentiation medium. […] The expression levels of CD56 and CD45 of the obtained NK cells and the cell fold expansion were measured by flow cytometry.
(§1) The cell expansion at the HSPC stage and the NK stage was calculated by dividing the number of suspension cells obtained at the sampling time point by the initial number of iPSCs at the spheroidization stage. The cell number was determined using the Countess™ 2 automated cell counter, and specific operating procedures can be found in the instrument's instructions.

[2] = tested on: iPSCs; test: FACS proportion of CD34+ cells, additive in second differentiation medium; settings: Day 12; 10 μM CHIR99021 or 0.75 μM SR1 added to second differentiation medium
Protocol: After 1 to 2 days of cell spheroidization, the medium was replaced with a second differentiation medium, and then the medium was changed every 2 days for 4 to 5 days of culture. The components of the second differentiation medium included: StemPro-34 complete medium supplemented with 1% ITS-X, 1 μM β-mercaptoethanol, 50 μg/mL ascorbic acid, 1× GlutaMAX, 50 ng/mL VEGF, 50 ng/mL bFGF, 50 ng/mL BMP4, and 35 nM UM171. At this stage, the cells can be transferred to a closed system for static culture or shaking culture.
After culturing for 3 days in the second differentiation medium, the medium was replaced with a third differentiation medium. The components of the third differentiation medium included: StemPro-34™ SFM complete medium supplemented with 1% ITS-X, 1 μM β-mercaptoethanol, 50 μg/mL ascorbic acid, 1× GlutaMAX, 50 ng/mL VEGF, 50 ng/mL bFGF, 50 ng/mL SCF, 10 ng/mL FLT3L, and 30 ng/mL TPO. The expression of CD34 or CD43, and CD44 was detected by FACS. […] The proportion and fold expansion of CD34^+ cells were detected at five time points: Day 8, Day 9, Day 10, Day 11, and Day 12. […]
In order to further increase the yield and proportion of CD34^+ cells, 10 μM CHIR99021 or 0.75 μM SR1 was added to the second differentiation medium of Example 1, and the proportion of CD34^+ cells in the cell population on Day 12 was detected by FACS. […]

[3] = tested on: iPSCs; test: qPCR marker expression on Day 3 of iPSC differentiation, optimization of first differentiation medium; settings: Day 3 of differentiation, 50 ng/mL BMP4, 10 μM CHIR99021; for expression of OCT4: added to first differentiation medium (mTeSR1+5 μM Y27632), alone or combined; for expression of early mesoderm and mesoderm markers (MIXL1 and T) / expression of hemogenic endothelial lineage-related markers (KDR, SCL) / expression of the HSPC marker (CD34): added to first differentiation medium
Protocol: iPSCs were aggregated into spheroids by either static spheroidization or shaking spheroidization. • 1) Static spheroidization. An appropriate number of iPSCs in a single-cell state were transferred to an AggreWell™ microwell plate, and subsequent operations were carried out according to the AggreWell™ 400 or AggreWell™ 800 instructions. Briefly, the concentration of the single-cell suspension was adjusted, and sufficient volumes of the single-cell suspension were added to each well of the AggreWell™ 400 or AggreWell™ 800 to achieve approximately 500,000 iPSCs in a single-cell state per well. Then, each well was supplemented with mTeSR™1 or TeSR™-AOF medium, and 5 μM Y27632 was added to reach a total of 5 mL/well. Then, a balance plate filled with water was prepared to match the weight and position of the AggreWell™ microwell plate in the centrifuge. The cells were then pipetted gently up and down several times to ensure uniform distribution of cells across the wells. The AggreWell™ plate was immediately centrifuged at 100 g for 3 minutes using the balanced plate prepared in the previous step to force the cells into the microwells. The plate was observed under a microscope to verify that the cells were evenly distributed in the microwells. The cells were cultured under static conditions at 37° C., 5% CO2, and 95% humidity for 1 to 2 days. • 2) Shaking spheroidization. The concentration of the single-cell suspension was adjusted, and 1.5 million iPSCs in a single-cell state were transferred to a 6-well plate. Each well was supplemented with mTeSR™1 medium containing 5 μM Y27632, 50 ng/mL BMP4, and 10 μM CHIR99021 to achieve a volume of 3 mL per well. The culture plate was placed on an orbital shaker at 60 rpm, 70 rpm, 80 rpm, or 90 rpm for culture, and the wells with uniform sized spheroids were selected for subsequent culture.
The iPSCs in the single-cell state were resuspended in the following four media after harvesting: 1) mTeSR™1+5 μM Y27632, 2) mTeSR™1+5 μM Y27632+50 ng/mL BMP4, 3) mTeSR™1+5 μM Y27632+10 μM CHIR99021, and 4) mTeSR™1+5 μM Y27632+50 ng/mL BMP4+10 μM CHIR99021. The cells were then cultured according to the method in Example 1. On Day 3 of differentiation, the cells were lysed, and mRNA was extracted and reverse-transcribed to obtain cDNA. The primers in Table 2 were used to measure the expression levels of OCT4, MIXL1, T, KDR, SCL, and CD34 in HSPCs on Day 3 of differentiation under the above-mentioned media conditions.

[4] = tested on: iPSCs; test: UM171 in second and/or third differentiation medium: yield of HSPCs and iNK cells; settings: 35 nM UM171 added to second differentiation medium
Protocol: 35 nM UM171 was added to the second differentiation medium and/or the third differentiation medium in Example 1, and the proportion of CD34^+ cells in the cell population on Day 12 and the proportion of CD56^+ cells in the cell population on Day 35 were detected by FACS. The results at these two time points are shown in FIG. 16, which indicate that the addition of UM171 to the second differentiation medium can increase the yield of HSPCs differentiated from iPSCs and the yield of iNK cells differentiated from HSPCs.
as §1

[5] = ABC294640 added to second and third differentiation medium

O=C(NCc1ccncc1)C12CC3CC(C1)CC(c1ccc(Cl)cc1)(C3)C2 [ABC294640]
yield of HSPCs [1, 5]: reducing
yield of iNK cells differentiated from these HSPCs [1, 5]: significantly increase
proliferation rate of iNK cells [1]: increase

Cc1c[nH]c(-c2cnc(NCCNc3ccc(C#N)cn3)nc2-c2ccc(Cl)cc2Cl)n1 [CHIR99021]
proportion of CD34+ cells in the cell population [2]: increase
expression of OCT4 [3]: decreased significantly
expression of early mesoderm and mesoderm markers (MIXL1 and T) [3]: began to decrease
expression of hemogenic endothelial lineage-related markers (KDR, SCL) [3]: increased significantly
expression of the HSPC marker (CD34) [3]: significantly increased

NC(=O)c1ccc[n+]([C@@H]2O[C@H](COP(=O)([O-])OP(=O)(O)OC[C@H]3O[C@@H](n4cnc5c(N)ncnc54)[C@H](O)[C@@H]3O)[C@@H](O)[C@H]2O)c1 [NAD^+, nicotinamide adenine dinucleotide]
proportion of CD56+ or CD45+ cells [1]: without affecting
yield of iNK cells [1]: increase
proliferation rate of iNK cells [1]: increase

C[S+]([O-])c1ccc(-c2nc(-c3ccncc3)c(-c3ccc(F)cc3)[nH]2)cc1 (stereo not drawn) [SB203580]
proportion of CD56+ or CD45+ cells [1]: without affecting
yield of iNK cells [1]: increase
proliferation rate of iNK cells [1]: increase

CC(C)n1cnc2c(NCCc3ccc(O)cc3)nc(-c3csc4ccccc34)nc21 [SR1]
proportion of CD34+ cells in the cell population [2]: increase

Cn1nnc(-c2ccc3c(c2)[nH]c2nc(Cc4ccccc4)nc(NC4CCC(N)CC4)c23)n1 (stereo not drawn) [UM171]
yield of HSPCs differentiated from iPSCs ([4]; Day 12): increase
yield of iNK cells differentiated from HSPCs ([4]; Day 35): increase

B1: BMP4: growth factor added to the first and second differentiation medium (protein, UniProt P12644 293-408, looked up)
Bone morphogenetic protein 4: SPKHHSQRARKKNKNCRRHSLYVDFSDVGWNDWIVAPPGYQAFYCHGDCPFPLADHLNSTNHAIVQTLVNSVNSSIPKACCVPTELSAISMLYLDEYDKVVLKNYQEMVVEGCGCR
expression of OCT4 [3]: decreased significantly
expression of early mesoderm and mesoderm markers (MIXL1 and T) [3]: began to decrease
expression of hemogenic endothelial lineage-related markers (KDR, SCL) [3]: increased significantly
expression of the HSPC marker (CD34) [3]: significantly increased
